Assay results taken from US20090087495A1, “Food for Improving Motor Function” (Nippon Meat Packers, Inc., priority 2005, published 2009).

Test system: male ddY mice
Assay: Stamina improvement: swimming until exhaustion in a running water pool
Assay type: in vivo
Settings: material 10 mg/ml, oral 10 ml/kg once a day for seven days; 10 animals per group; relative value, Comparative Example 21 (control) = 100
Excerpt: The test solution was given to mice to check for the influence on the improvement of stamina. Five-week-old male ddY mice (purchased from Japan SLC Co. Ltd.) were raised, letting them be free to take solid feed (CE-2, Japan Clare Co. Ltd., Tokyo) and water (10 mice per group). […] After one week of preparatory raising and swim training, they were allowed to freely take ordinary solid feed and water. […] On the day just before start of giving the test solution and on the 7th day after start of giving the test solution, the experimental animals were let to swim until exhaustion in the pool (velocity at center: 23.6 cm/sec.) to measure the swimming duration and to obtain the elongation of the swimming duration in seven days.

Compound	Elongation of swimming duration (%), without chicken extract powder
proanthocyanidin [Comparative Example 11]	110%
Cn1c(=O)c2c(ncn2C)n(C)c1=O [Comparative Example 6, caffeine]	110%
O=C(O)CC(O)(CC(=O)O)C(=O)O [Comparative Example 7, citric acid]	110%
antocyanine [Comparative Example 12]	120%
C/C=C1/[C@H](O[C@@H]2O[C@H](CO)[C@@H](O)[C@H](O)[C@H]2O)OC=C(C(=O)OC)[C@H]1CC(=O)OCCc1ccc(O)c(O)c1 [Comparative Example 13, oleuropein]	120%
C[N+](C)(C)CC(O)CC(=O)[O-] (stereo not drawn) [Comparative Example 8, carnitine]	110%
COC1=C(OC)C(=O)C(C/C=C(\C)CC/C=C(\C)CC/C=C(\C)CC/C=C(\C)CC/C=C(\C)CC/C=C(\C)CC/C=C(\C)CC/C=C(\C)CC/C=C(\C)CCC=C(C)C)=C(C)C1=O [Comparative Example 14, ubiquinone (CoQ10)]	110%
tocotrienol [Comparative Example 15]	120%
heme iron [Comparative Example 10]	110%
CN(CC(=O)O)C(=N)N [Comparative Example 1, creatine]	110%
O=C(O)CCCCC1CCSS1 (stereo not drawn) [Comparative Example 9, thioctic acid]	110%
N=C(N)NCCC[C@H](N)C(=O)O [Comparative Example 2, arginine]	110%
